Data reported in the NIST ThermoML archive (doi:10.1016/j.jct.2016.03.030).
Numbers after ± are expanded uncertainties.

Test: xn = mol fraction of the nth substance listed
Details: 100 kPa, Liquid; for viscosity: Falling or rolling sphere viscometry; for mass density: Vibrating tube method

CCCCC[N+]1(C)CCOCC1.[Br-] [4-methyl-4-pentylmorpholinium bromide] + O
Details | mass density, 323.15 K [kg/m3] | mass density, 328.15 K [kg/m3] | mass density, 333.15 K [kg/m3] | mass density, 338.15 K [kg/m3] | mass density, 343.15 K [kg/m3] | viscosity, 323.15 K [mPa·s] | viscosity, 328.15 K [mPa·s] | viscosity, 333.15 K [mPa·s] | viscosity, 338.15 K [mPa·s] | viscosity, 343.15 K [mPa·s]
x1 = 0.0316 | 1059.7 ± 1.1 | 1056.6 ± 1.1 | 1053.5 ± 1.1 | 1050.5 ± 1.1 | 1047.2 ± 1.1 | 1.023 ± 0.1 | 0.908 ± 0.091 | 0.817 ± 0.082 | 0.74 ± 0.074 | 0.677 ± 0.068
x1 = 0.0695 | 1111.5 ± 1 | 1108.1 ± 1 | 1104.7 ± 1 | 1101.2 ± 1 | 1097.8 ± 1 | 1.95 ± 0.2 | 1.703 ± 0.17 | 1.504 ± 0.15 | 1.374 ± 0.14 | 1.288 ± 0.13
x1 = 0.0965 | 1137 ± 1 | 1133.5 ± 1 | 1130 ± 1 | 1126.5 ± 1 | 1122.9 ± 1 | 2.963 ± 0.3 | 2.557 ± 0.26 | 2.234 ± 0.22 | 1.965 ± 0.2 | 1.733 ± 0.17
x1 = 0.1196 | 1152.9 ± 1 | 1149.4 ± 1 | 1145.9 ± 1 | 1142.3 ± 1 | 1138.7 ± 1 | 4.065 ± 0.41 | 3.475 ± 0.35 | 3.003 ± 0.3 | 2.724 ± 0.27 | 2.554 ± 0.26
x1 = 0.1522 | 1170.6 ± 1.1 | 1167.1 ± 1.1 | 1163.6 ± 1.1 | 1160.1 ± 1.1 | 1156.5 ± 1.1 | 6.349 ± 0.64 | 5.382 ± 0.54 | 4.616 ± 0.46 | 3.961 ± 0.4 | 3.412 ± 0.34
x1 = 0.2054 | 1191.3 ± 1.1 | 1187.9 ± 1.1 | 1184.4 ± 1.1 | 1180.9 ± 1.1 | 1177.5 ± 1.1 | 11.9 ± 1.2 | 9.86 ± 0.99 | 8.297 ± 0.83 | 7.055 ± 0.71 | 6.064 ± 0.61
x1 = 0.219 | 1195.4 ± 1.2 | 1191.9 ± 1.2 | 1188.5 ± 1.2 | 1185.1 ± 1.2 | 1181.6 ± 1.2 | 13.89 ± 1.4 | 11.44 ± 1.1 | 9.561 ± 0.96 | 8.079 ± 0.81 | 7.061 ± 0.71
x1 = 0.2438 | 1202.2 ± 1.2 | 1198.8 ± 1.2 | 1195.4 ± 1.2 | 1192 ± 1.2 | 1188.5 ± 1.2 | 18.52 ± 1.9 | 15.02 ± 1.5 | 12.38 ± 1.2 | 10.39 ± 1 | 8.615 ± 0.87
x1 = 0.2754 | 1209.4 ± 1.3 | 1206.1 ± 1.3 | 1202.7 ± 1.3 | 1199.3 ± 1.3 | 1196 ± 1.3 | 26.85 ± 2.7 | 21.35 ± 2.1 | 17.33 ± 1.7 | 14.54 ± 1.5 | 12.93 ± 1.3
